Data as given in US6303596A, “Use of taurolidine for treatment of leukemias” (priority 2000, dated 2001).

What was measured:
Format in all cases: cell-based, human
[1] = test system: tissue factor (TF); assay: TF activity (coagulation) assay on LPS-induced PBMC treated in whole blood
Experimental: In order to determine if taurolidine would inhibit LPS-induced TF expression in PBMC in their native milieu, i.e., whole blood, a tissue factor activity assay was performed. LPS (10 ng/ml) and taurolidine (100-500 μg/ml) or equal dilutions of the taurolidine vehicle were added to 5 ml aliquots of heparinized blood, and the blood was incubated in 50 ml centrifuige tubes at 37° C., rotating on a horizontal rotator at 120 rpm. After 4 hours, PBMC were purified from the blood using Histopaque as described previously. Cells were lysed by 3 freeze-thaw cycles, and used as a source of TF in coagulation assays. For these assays, 50 μl of lysate (at 2×10^7 cells/ml) was added to 50 μl pooled normal human plasma, incubated for 30 seconds at 37° C., then 50 μl of 25 MM CaCl2 was added and clot formation assayed using a Diagnostica Stago ST4 coagulometer. Protein content of the cell samples was determined by bicinchoninic acid assay (Pierce Chemical Company, Rockford, Ill.), and used to normalize the clotting data. A standard curve was made with descyto TF reconstituted in PS/PC vesicles according to the method of Mimms et al. (Mimms, et al., "Phospholipid vesicle formation and transmembrane protein incorporation using octyl glucoside," Biochemistry 20:833-840 (1981)). One unit of TF was defined as that which caused clot formation at 50 seconds of incubation with CaCl2. The TF activity assays were performed on LPS-induced PBMC after 4 hour treatment in whole blood. A dose-response effect of taurolidine on monocyte TF is illustrated in Table II. […] Thus, higher concentrations of taurolidine were required to inhibit TF when the PBMC were treated with whole blood when compared to PBMC in culture medium. Further, lower concentrations of taurolidine were required to down-regulate TF expression than were needed to induce apoptosis as described below.
^a Heparinized blood was incubated in the presence of LPS and varying
amounts of taurolidine, then PBMC were purified, and coagulation assays
performed on cell lysates. Units of TF per mg protein were calculated as
described above, and data expressed as percentage of LPS-only ("control")
samples. Data shown are mean ± S.D. of two experiments.

[2] = test system: GM5387 (fibroblasts); assay: trypan blue exclusion, GM5387; details: GM5387, after taurolidine treatment
Experimental: FIGS. 11A and 11B depict cell viability and growth rates for GM5387 cell line following taurolidine treatment, in terms of % trypan blue negative cells and % cell number, respectively. Cells were treated with various concentrations of taurolidine for 4 hours in AIM-V+0.01% BCS. After aliquots were collected for LDH assay, the remainder of the culture was rinsed in HBSS and resuspended in RPMI+10% BCS without taurolidine. Counts of trypan blue-negative cells (FIG. 11A), and total cell number (FIG. 11B), were recorded daily thereafter (with the measurement at Day 1 being made immediately after the 4 hour taurolidine treatment). Conditions were: no treatment (open circles); 25 μg/ml taurolidine (closed circles); 50 μg/ml taurolidine (open squares); 100 μg/ml taurolidine (closed squares); and vehicle alone (closed triangles). Doubling times were determined under each condition, and expressed as a percentage of the rate of doubling of untreated cells. These values are located to the right of the growth curves in (FIG. 11B). […]
HL-60 cells treated with 50 μl taurolidine. In these samples, LDH present in the culture medium was 8.3±2.3% of that released by completely lysed cells, compared with 2.3±0.8% measured in control cultures. […] After 4 hour treatment, cells were rinsed and returned to growth medium and monitored for viability and growth over the following 3 days. […]

[3] = test system: K562; assay: TUNEL / propidium iodide flow cytometry, K562; details: taurolidine 100 μg/ml or anisomycin 1 μg/ml for 4 h, assayed at 24 hours, mean ± SD
Experimental: (§1) In the second method, DNA fragmentation was detected via TUNEL assay according to the manufacturer's instructions. With this methodology, 2×10^6 cells were fixed with 2% paraformaldehyde, permeabilized with 0.1% Triton X-100/0.1% citrate, incubated at 37° C. with terminal deoxynucleotidyl transferase and FITC-dUTP, rinsed and analyzed by flow cytometry. Enhanced FITC signal indicates apoptosis-specific DNA fragmentation. Gavriali, et al, "Identification of programmed cell death in situ via specific labeling of nuclear DNA fragmentation," J Cell Biol 119:493 (1992). Parallel aliquots of unfixed cells were treated with PI and FITC-conjugated anti-CD14 and analyzed by flow cytometry, in order to identify cells with permeable cell membranes (since PI binds to DNA but is excluded from cells with intact plasma membranes) and also to determine the cell-specificity of the apoptotic signal.
(§2) In another study, TUNEL assays were performed on all cell lines 6 hours after cells were initially exposed to taurolidine (cells were treated for 4 hours, rinsed, and then incubated for 2 more hours before TUNEL assay was performed).
. Taurolidine and anisomycin induced apoptosis in MM6, HL-60, and Jurkat cells (Table VIII). MM6 and HL-60 cells were similarly effected, with >80% TUNEL-positive cells after 6 hours. Jurkat cells were less sensitive, with approximately 50% of cells induced to undergo apoptosis after taurolidine treatment. After 6 hours, 73% of anisomycin-treated REH cells were apoptotic, with less than 20% of taurolidine-treated REH cells being TUNEL-positive. However, assay of cells 24 hours after
^a Analysis by flow cytometry after staining cells with propidium
iodide and processing for TUNEL.
Data are percent of total cell-size events, and are expressed as mean ±
Cells were treated for 4 hours with taurolidine (100 μg/ml) or
anisomycin (1 μg/ml), and then assayed at 6 hours.
Data are percent of total cell-sized events, and are expressed as mean ±
anisomycin (1 μg/ml), and then assayed at 24 hours.

[4] = test system: GM5387; assay: TUNEL / propidium iodide flow cytometry, GM5387; details: GM5387, 6 hours after treatment
Experimental: as §1, §2
. Taurolidine and anisomycin induced apoptosis in MM6, HL-60, and Jurkat cells (Table VIII). MM6 and HL-60 cells were similarly effected, with >80% TUNEL-positive cells after 6 hours. […]
Data are percent of total cell-size events, and are expressed as mean ± […]

O=S1(=O)CCN(CN2CCS(=O)(=O)NC2)CN1 [taurolidine, 4,4'-methylenebis(perhydro-1,2,4-thiadiazin 1,1-dioxide)]
activity at 100 µg/mL ([1]; Homo sapiens, PBMC, 100 μg/ml taurolidine, 4 h, mean ± S.D. of two experiments, read-out: coagulation activity of LPS-induced PBMC, % of control): 87.7 ± 6.6%
inhibition at 100 µg/mL ([1]; Homo sapiens, PBMC, 100 μg/ml taurolidine, 4 h, read-out: decrease of TF activity): 12%
activity at 200 µg/mL ([1]; Homo sapiens, PBMC, 200 μg/ml taurolidine, 4 h, mean ± S.D. of two experiments, read-out: coagulation activity of LPS-induced PBMC, % of control): 41.7 ± 8%
inhibition at 200 µg/mL ([1]; Homo sapiens, PBMC, 200 μg/ml taurolidine, 4 h, read-out: decrease of TF activity): ~60%
activity at 500 µg/mL ([1]; Homo sapiens, PBMC, 500 μg/ml taurolidine, 4 h, mean ± S.D. of two experiments, read-out: coagulation activity of LPS-induced PBMC, % of control): 26.5 ± 10.6%
inhibition at 500 µg/mL ([1]; Homo sapiens, PBMC, 500 μg/ml taurolidine, 4 h, read-out: loss of TF activity): ~75%
reduction of TF activity of LPS-induced monocytes ([1]; taurolidine as low as 200 μg/ml): significant reduction
trypan blue staining during 4 day growth [2]: did not demonstrate a significant increase in trypan blue staining
trypan blue staining during 4 day growth ([2]; listed as Taurolidine): cells remained trypan blue negative
% TUNEL-positive [3]: approximately 20%
DNA fragmentation (TUNEL positivity) [4]: did not demonstrate evidence for fragmentation of DNA
